Data as given in patent US20240100000A1, “APPLICATION OF ADRB1 ACTIVE INHIBITOR IN PREPARING PREPARATION OR AS PREPARATION FOR TREATING PSORIASIS” (priority 2022, published 2024).
Structures can show the parent of a compound that is named as a salt.

How the values were obtained:
[1] = tested on: catecholaminergic neurons; details: intraperitoneal injection; cited from earlier work
skin sympathetic nerve = test: Psoriasis model with skin sympathetic nerve ablation (intradermal 6-OHDA before IMQ); type: in vivo, mice; details: intradermal injection before IMQ treatment
Method: In the embodiment of the disclosure, the sympathectomy of local skin is as follows. […] of 6-hydroxydopamine (6-OHDA) are dissolved into 100 microliters (μL) of 0.1% ascorbic acid solution (diluted with 0.9% sterile sodium chloride) to prepare a fresh sympathetic nerve ablation solution. Wild-type mice aged 7-8 weeks are selected to shave their back hair, and the exposed skin area is 2 centimeters (cm)×2 cm. Then, the mice are intradermally injected with 100 μL fresh sympathetic nerve ablation solution, controls are injected with an injecting control agent (100 μL of 0.1% ascorbic acid solution).

NF-κB (P65) = test: Activation of NF-κB, AKT, p38, ERK in IL-23-activated primary γδT cells; type: cell-based, mice
Text: (§1) In the embodiment of the disclosure, in order to study how to ADRB1 regulates the inflammatory response of γδT cells, high-purity primary γδT cells are isolated from the spleen of mice by magnetic bead sorting kit, and stimulated with ADRB1 agonist and antagonist respectively.

IMQ-induced mice [2] = test: IMQ-induced psoriasis mouse model smeared with β1-AR antagonist/agonist; type: in vivo
Method: In the embodiment of the disclosure, the construction of psoriasis mouse model smeared with β1-AR antagonist/agonist is as follows. 5 μL of β1-AR antagonist/agonist storage solution (40 mg/mL, DMSO solvent) is taken and dissolved in 95 μL of 20% sulfobutylether-beta-cyclodextrin derivative (SBE-β-CD) solution (diluted with sterile sodium chloride) to prepare 2 mg/mL antagonist/agonist diluent. Wild-type mice aged 7-8 weeks are selected to shave their back hair, and the exposed skin area is 2 cm×2 cm. The mice are applied with 100 μL of the antagonist/agonist diluent, and controls are smeared with a smearing control agent (i.e., 5 μL DMSO+95 μL 20% SBE-β-CD solution).

NF-κB = NF-κB phosphorylation in skin of IMQ-induced psoriatic mice; type: in vivo
primary γδT cells = test: IL17A/F transcription in primary γδT cells stimulated by IL-23 and ACE/DOB; type: cell-based, mice; details: primary γδT cells activated by IL-23; DOB at high concentration
Text: as §1

[3] = tested on: γδT-cell deficient mice (Tcrd−/−); test: DOB applied to skin of γδT-cell deficient mice (Tcrd−/−); type: in vivo
Text: Combined with the previous results, it is verified that NE in skin is mainly derived from skin sympathetic nerve and mediates the release IL-17 from γδT cells rather than αβT cells through NE-ADRB1 signaling pathway.

β1-AR = test: Proportion of β1-AR+ T cells in skin of IMQ-treated mice (immunofluorescence and flow cytometry); type: in vivo
Text: In the embodiment of the disclosure, immunofluorescence and flow cytometry are used to detect β1-AR is mainly expressed in IL-17A-producing γδT cells (also referred to as γδT-17 cells), as shown in FIG. 14.

[4] = Neurotransmitter content (ELISA) and TH phosphorylation (western blot) in IMQ-treated mice; type: in vivo
Dendritic cells (DCs) = details: cited from earlier work; for IL-17A induced by stimulated DCs / production of IFN-γ by CD4 cells: DCs in mice stimulated
IMQ-induced mice [5] = test: Psoriasis model with subcutaneous norepinephrine (NE) injection; type: in vivo; details: subcutaneous injection while IMQ is smeared
Method: In the embodiment of the disclosure, the construction of psoriasis model injected with norepinephrine (NE) is as follows. 6 μL of norepinephrine storage solution (10 millimoles per liter, abbreviated mM) is dissolved into 100 μL of 1 xphosphate-buffered saline (also referred to as 1×PBS, specifically prepared by a commonly used 1× phosphate buffered saline recipe), and […] NE diluent is prepared. Wild-type mice aged 7-8 weeks are selected to shave their back hair, and the exposed skin area is 2 cm×2 cm. Then, the mice are subcutaneously injected with 100 μL NE diluent, and controls are injected with an injecting control agent (6 μL dimethyl sulfoxide, abbreviated DMSO+100 μL PBS).

[6] = psoriatic mice treated with IMQ vs control mice treated with VAS

NCCc1cc(O)c(O)cc1O [6-OHDA, 6-hydroxydopamine]
IMQ induced ear swelling [1]: reduce
production of IL-17 [1]: does not affect
IL-17A+γδT cells in sympathetic denervated skin (skin sympathetic nerve): decreased
NE in sympathetic denervated skin (skin sympathetic nerve): decrease
psoriasis-like phenotype of mice induced by IMQ (skin sympathetic nerve; removal of skin sympathetic nerve): reduces

CCCC(=O)Nc1ccc(OCC(O)CNC(C)C)c(C(C)=O)c1 (stereo not drawn) [ACE, acebutolol hydrochloride]
NF-κB (P65) phosphorylation (NF-κB (P65)): inhibits
activation of P38, ERK, JNK and AKT (NF-κB (P65)): do not affect
proportion of γδT-17 cells in the skin (IMQ-induced mice [2]; IMQ-induced mice smeared with drug): reduced
activation of NF-κB (phosphorylation) in the skin (NF-κB): inhibition
transcription of IL17A (primary γδT cells): decreases
transcription of IL17F (primary γδT cells): decreases

CC(CCc1ccc(O)cc1)NCCc1ccc(O)c(O)c1 (stereo not drawn) [DOB, dobutamine hydrochloride]
IL-17 producing capacity αβT cells [3]: no effect
promoting effects on the psoriasis-like phenotype and inflammatory infiltration ([3]; lack of γδT cells): offset
NF-κB (P65) phosphorylation (NF-κB (P65)): significantly increases
activation of P38, ERK, JNK and AKT (NF-κB (P65)): do not affect
IL-17A production of γδT cells in the skin (IMQ-induced mice [2]; IMQ-induced mice): promotes
back skin thickness, erythema, and scaling (IMQ-induced mice [2]; IMQ-induced mice smeared with drug, compared with the control group): increased
psoriasis-like phenotype (IMQ-induced mice [2]; IMQ-induced mice, smeared on back skin, 100 μL of 2 mg/mL diluent, 4 consecutive days, compared with the control group): aggravated
activation of NF-κB (phosphorylation) in the skin (NF-κB): enhances
transcription of IL17A (primary γδT cells): increase
transcription of IL17F (primary γδT cells): increase

CC(C)Cn1cnc2c(N)nc3ccccc3c21 [IMQ, imiquimod]
proportion of β1-AR+ cells in γδT cells in the skin (β1-AR; IMQ-treated vs VAS treated mice): significantly higher
proportion of β1-AR+ cells in αβT cells in the skin (β1-AR; VAS-treated vs IMQ-treated mice): no significant difference
NE content in both skin and serum [4, 6]: higher
dopamine in skin and serum [4, 6]: no difference
TH phosphorylation in mouse skin ([4]; western blot): significant up-regulation

NC[C@H](O)c1ccc(O)c(O)c1 [NE, norepinephrine]
IL-17A induced by stimulated DCs (Dendritic cells (DCs)): induce
production of IFN-γ by CD4 cells (Dendritic cells (DCs)): reducing
proportion of IL-17A+γδT cells in the skin of mice (IMQ-induced mice [5]): increases
psoriasis-like phenotype of mice induced by IMQ (IMQ-induced mice [5]; 4 days): exacerbates

CC(C)(C)NCC(O)c1ccc(O)c(CO)c1 (stereo not drawn) [salbutamol]
IL-23 production by DCs (Dendritic cells (DCs); DCs from treated mice): more
IL-17A induced by stimulated DCs (Dendritic cells (DCs)): induce
production of IFN-γ by CD4 cells (Dendritic cells (DCs)): reducing
